Results as given in US20240350522A1, “HYGROMYCIN A FOR TREATMENT OF DISEASES AND INFECTIONS” (FLIGHTPATH BIOSCIENCES, INC., priority 2021, published 2024).
“And” between values parts separate entries of the source, which are not always exact repeats. Identical values can stand only once. Like-named read-outs stand apart in the source and are kept apart here.

Key:
Assay type in all cases: cell-based
F. nucleatum polymorphum = experiment: Kirby-Bauer diffusion assay; settings: Fusobacterium nucleatum, mean (SEM), read-out: size of zone inhibition (mm); for zone of inhibition at 20 µg/disc: Hyg A 20 μg per disc; for zone of inhibition at 40 µg/disc: Hyg A 40 μg per disc; for zone of inhibition at 5 µg/disc: Hyg A 5 μg per disc; for zone of inhibition at 10 µg/disc: Hyg A 10 μg per disc
Experimental: Three representatives of 6 subspecies of Fusobacterium nucleatum (F. nucleatum) for a total of 18 strains were tested in the experiment. The sub species and strains are described in Table 2.
All strains were verified by 16S V3/V6 sequence analysis prior to use. The methods described herein were performed in an anaerobic chamber at 37° C. All media and plates were degassed prior to use.
Hygromycin A (Hyg A) discs were prepared by solubilizing Hyg A in distilled water and sterile filtered. Clindamycin was used as a positive control. Defined amounts of hygromycin A (40, 20, 10 or 5 micrograms), clindamycin (2 micrograms) or sterile distilled water were absorbed onto Kirby-Bauer discs in a biosafety cabinet.
An overnight culture was grown in Wilkins-Chalgren (WC) broth and back-diluted 1:10 in fresh broth. When an OD 600 reading reached 0.5, 300 μL of the log phase culture was plated onto WC agar plates. The plates were sectioned into quadrants and a Kirby-Bauer (KB) disc impregnated with a defined amount of hygromycin A was placed in each quadrant. Plates were prepared thus in triplicate and the four amounts of hygromycin A were 40, 20 10 and 5 micrograms. The same volume of culture was spread on fourth plate sectioned into six sections for three positive and three negative controls. KB discs with water served as negative controls and KB discs impregnated with 2 micrograms of clindamycin served as positive controls. […] Table 3, Table 4, Table 5, Table 6, Table 7, Table 8 show the mean size of zone inhibitions for each of the subspecies tested using increasing concentrations of hygromycin A where the standard error of mean is represented in parenthesis.
The amount of hygromycin A was plotted against the size of the zone of inhibition for each strain tested.

[1] = test system: Treponema pallidum pallidum Chicago strain; experiment: T. pallidum susceptibility assay, co-culture with Sf1Ep cells, tp0574 (T47) qPCR after 7 days; settings: for Mean T47 copies/μL, Avg. / Mean T47 copies/μL, experimental values: 7 days; for Mean T47 copies/μL, Avg.: average of 8 replicates; for Mean T47 copies/μL, experimental values: replicate wells
[2] = test system: Treponema pallidum pallidum Chicago strain; experiment: Treated treponemes seeded onto no-antibiotic plate, 7 more days, T47 qPCR (treponemicidal activity); settings: for Mean T47 copies/μL, Avg. / Mean T47 copies/μL, Expt. values: seeded on no antibiotic plate; for Mean T47 copies/μL, Avg.: average; for Mean T47 copies/μL, Expt. values: replicate wells
[3] = pre-treated with Hygromycin A 0.03 μg/ml
[4] = pre-treated with Hygromycin A 0.06 μg/ml
[5] = pre-treated with Hygromycin A 0.12 μg/ml
[6] = pre-treated with Hygromycin A 0.24 μg/ml
[7] = pre-treated with Hygromycin A 0.48 μg/ml
[8] = pre-treated with Hygromycin A 0.96 μg/ml
[9] = pre-treated with Hygromycin A 1.92 μg/ml
[10] = pre-treated with Hygromycin A 3.84 μg/ml

Question: How did the zone of inhibition at 20 µg/disc (F. nucleatum polymorphum; strain 13_3C EAV005) turn out when `CC(=O)[C@H]1O[C@@H](Oc2ccc(/C=C(\C)C(=O)N[C@@H]3[C@H](O)[C@@H](O)[C@H]4OCO[C@H]4[C@@H]3O)cc2O)[C@@H](O)[C@@H]1O` [Hyg A, Hygromycin A] was run?
Answer: Its zone of inhibition at 20 µg/disc is 25.7 mm.

Question: And the zone of inhibition at 40 µg/disc (F. nucleatum polymorphum; strain 13_3C EAV005)?
Answer: The zone of inhibition at 40 µg/disc was 27.3 mm.

Question: What about the zone of inhibition at 5 µg/disc (F. nucleatum polymorphum; strain 203L28) of the same molecule?
Answer: The zone of inhibition at 5 µg/disc was 20.3 mm.

Question: What about the zone of inhibition at 10 µg/disc (F. nucleatum polymorphum; strain 203L28) of the same molecule?
Answer: The zone of inhibition at 10 µg/disc was 23 mm.

Question: What about the zone of inhibition at 20 µg/disc (F. nucleatum polymorphum; strain 203L28) of the same molecule?
Answer: Its zone of inhibition at 20 µg/disc is 24 mm.

Question: And the zone of inhibition at 40 µg/disc (F. nucleatum polymorphum; strain 203L28)?
Answer: Its zone of inhibition at 40 µg/disc is 30.3 mm.

Question: What about the zone of inhibition at 5 µg/disc (F. nucleatum polymorphum; strain 203L29) of the same molecule?
Answer: The zone of inhibition at 5 µg/disc was 18.3 mm.

Question: What about the zone of inhibition at 10 µg/disc (F. nucleatum polymorphum; strain 203L29) of the same molecule?
Answer: Its zone of inhibition at 10 µg/disc is 20.3 mm.

Question: What about the zone of inhibition at 20 µg/disc (F. nucleatum polymorphum; strain 203L29) of the same molecule?
Answer: The zone of inhibition at 20 µg/disc was 24 mm.

Question: And the zone of inhibition at 40 µg/disc (F. nucleatum polymorphum; strain 203L29)?
Answer: The zone of inhibition at 40 µg/disc was 26.7 mm.

Question: And the “lowest concentration effective against growth (no significant difference to higher concentrations)” value ([1]; Chicago strain, ANOVA p<0.05)?
Answer: The value was 0.12 µg/mL.

Question: What about the “Mean T47 copies/μL, Avg.” value ([1]; Hyg A 0.03 μg/ml) of the same molecule?
Answer: Its value is 7184 copies/μL.

Question: And the “Mean T47 copies/μL, experimental values” ([1]; Hyg A 0.03 μg/ml)?
Answer: Its value is 2531 copies/μL and 7304 copies/μL and 8369 copies/μL and 7552 copies/μL and 6189 copies/μL and 9263 copies/μL and 8429 copies/μL and 7834 copies/μL.

Question: And the “Mean T47 copies/μL, Avg.” value ([1]; Hyg A 0.06 μg/ml)?
Answer: Its value is 1814 copies/μL.

Question: What about the “Mean T47 copies/μL, experimental values” ([1]; Hyg A 0.06 μg/ml) of the same molecule?
Answer: Its value is 1336 copies/μL and 1882 copies/μL and 1716 copies/μL and 2225 copies/μL and 1815 copies/μL and 2044 copies/μL and 2022 copies/μL and 1476 copies/μL.

Question: What about the “Mean T47 copies/μL, Avg.” value ([1]; Hyg A 0.12 μg/ml) of the same molecule?
Answer: Its value is 674 copies/μL.

Question: What about the “Mean T47 copies/μL, experimental values” ([1]; Hyg A 0.12 μg/ml) of the same molecule?
Answer: The value was 449 copies/μL and 775 copies/μL and 689 copies/μL and 776 copies/μL and 788 copies/μL and 670 copies/μL and 704 copies/μL and 545 copies/μL.

Question: What about the “Mean T47 copies/μL, Avg.” value ([1]; Hyg A 0.24 μg/ml) of the same molecule?
Answer: Its value is 576 copies/μL.

Question: What about the “Mean T47 copies/μL, experimental values” ([1]; Hyg A 0.24 μg/ml) of the same molecule?
Answer: Its value is 360 copies/μL and 447 copies/μL and 513 copies/μL and 890 copies/μL and 775 copies/μL and 636 copies/μL and 565 copies/μL and 424 copies/μL.

Question: What about the “Mean T47 copies/μL, Avg.” value ([1]; Hyg A 0.48 μg/ml) of the same molecule?
Answer: The value was 457 copies/μL.

Question: What about the “Mean T47 copies/μL, experimental values” ([1]; Hyg A 0.48 μg/ml) of the same molecule?
Answer: Its value is 341 copies/μL and 475 copies/μL and 462 copies/μL and 614 copies/μL and 548 copies/μL and 509 copies/μL and 425 copies/μL and 280 copies/μL.

Question: And the “Mean T47 copies/μL, Avg.” value ([1]; Hyg A 0.96 μg/ml)?
Answer: Its value is 397 copies/μL.

Question: And the “Mean T47 copies/μL, experimental values” ([1]; Hyg A 0.96 μg/ml)?
Answer: Its value is 271 copies/μL and 393 copies/μL and 520 copies/μL and 528 copies/μL and 402 copies/μL and 418 copies/μL and 372 copies/μL and 273 copies/μL.

Question: And the “Mean T47 copies/μL, Avg.” value ([1]; Hyg A 1.92 μg/ml)?
Answer: The value was 451 copies/μL.

Question: And the “Mean T47 copies/μL, experimental values” ([1]; Hyg A 1.92 μg/ml)?
Answer: Its value is 301 copies/μL and 422 copies/μL and 453 copies/μL and 556 copies/μL and 585 copies/μL and 546 copies/μL and 464 copies/μL and 279 copies/μL.

Question: What about the “Mean T47 copies/μL, Avg.” value ([1]; Hyg A 3.84 μg/ml) of the same molecule?
Answer: Its value is 493 copies/μL.

Question: What about the “Mean T47 copies/μL, experimental values” ([1]; Hyg A 3.84 μg/ml) of the same molecule?
Answer: The value was 324 copies/μL and 470 copies/μL and 612 copies/μL and 487 copies/μL and 485 copies/μL and 532 copies/μL and 618 copies/μL and 412 copies/μL.

Question: What about the “concentration with treponemicidal activity” value ([2]; Chicago strain seeded onto no-antibiotic control plate) of the same molecule?
Answer: The value was at least 0.12 µg/mL.

Question: And the “Mean T47 copies/μL, Avg.” value [2, 3]?
Answer: Its value is 14552 copies/μL.

Question: And the “Mean T47 copies/μL, Expt. values” [2, 3]?
Answer: The value was 10276 copies/μL and 18338 copies/μL and 20335 copies/μL and 9952 copies/μL.

Question: What about the “Mean T47 copies/μL, Avg.” value [2, 4] of the same molecule?
Answer: Its value is 1000 copies/μL.

Question: And the “Mean T47 copies/μL, Expt. values” [2, 4]?
Answer: The value was 744 copies/μL and 560 copies/μL and 2087 copies/μL and 892 copies/μL.

Question: What about the “Mean T47 copies/μL, Avg.” value [2, 5] of the same molecule?
Answer: Its value is 28 copies/μL.

Question: And the “Mean T47 copies/μL, Expt. values” [2, 5]?
Answer: Its value is 13 copies/μL and 19 copies/μL and 39 copies/μL and 22 copies/μL.

Question: What about the “Mean T47 copies/μL, Avg.” value [2, 6] of the same molecule?
Answer: The value was 32 copies/μL.

Question: What about the “Mean T47 copies/μL, Expt. values” [2, 6] of the same molecule?
Answer: Its value is 17 copies/μL and 41 copies/μL and 22 copies/μL and 52 copies/μL.

Question: And the “Mean T47 copies/μL, Avg.” value [2, 7]?
Answer: The value was 26 copies/μL.

Question: What about the “Mean T47 copies/μL, Expt. values” [2, 7] of the same molecule?
Answer: The value was 0 copies/μL and 32 copies/μL (2×) and 23 copies/μL and 22 copies/μL.

Question: And the “Mean T47 copies/μL, Avg.” value [2, 8]?
Answer: Its value is 24 copies/μL.

Question: And the “Mean T47 copies/μL, Expt. values” [2, 8]?
Answer: The value was 14 copies/μL and 23 copies/μL and 31 copies/μL and 27 copies/μL and 7 copies/μL.

Question: And the “Mean T47 copies/μL, Avg.” value [2, 9]?
Answer: The value was 23 copies/μL.

Question: What about the “Mean T47 copies/μL, Expt. values” [2, 9] of the same molecule?
Answer: Its value is 28 copies/μL and 8 copies/μL and 23 copies/μL and 36 copies/μL and 34 copies/μL.

Question: What about the “Mean T47 copies/μL, Avg.” value [2, 10] of the same molecule?
Answer: Its value is 27 copies/μL.

Question: And the “Mean T47 copies/μL, Expt. values” [2, 10]?
Answer: The value was 37 copies/μL and 24 copies/μL and 27 copies/μL and 41 copies/μL and 13 copies/μL.
